In patent US20260085049A1, “CRYSTAL FORM OF ERGOTHIONEINE” (NANJING NUTRABUILDING BIO-TECH CO., LTD., priority 2023, published 2026):

How the values were obtained:
[1] = Analysis and comparison of properties: hygroscopicity; format: physicochemical; details: solid forms prepared from crude ergothioneine
Procedure: (§1) X-ray diffraction (XRD), differential scanning calorimetry (DSC), elemental analysis, particle size analysis, quantitative nuclear magnetic resonance (NMR), Raman spectroscopy, infrared spectroscopy (IR), TGA, IPC-MS, DVS and other tests were carried out on the crystal forms prepared in the Examples.
(§2) Using crude ergothioneine as raw material, three crystal forms A, B and C were prepared respectively, and their properties were compared with those of amorphous ergothioneine.

[2] = Analysis and comparison of properties: moisture; format: physicochemical; details: solid forms prepared from crude ergothioneine
Procedure: as §1, §2

[3] = listed as amorphous ergothioneine

Structure (SMILES): C[N+](C)(C)[C@@H](Cc1c[nH]c(=S)[nH]1)C(=O)[O-] [Amorphous, ergothioneine]
- Hygroscopicity [1]: Easily
- Hygroscopicity [1, 3]: strong hygroscopicity
- Moisture (%) [2]: 1.29%
- Moisture (%) [2, 3]: 1.29%

Structure (SMILES): C[N+](C)(C)[C@@H](Cc1c[nH]c(=S)[nH]1)C(=O)[O-] [Crystal form A, ergothioneine]
- Hygroscopicity [1]: Stable
- Moisture (%) [2]: 0.07%

Structure (SMILES): C[N+](C)(C)[C@@H](Cc1c[nH]c(=S)[nH]1)C(=O)[O-] [Crystal form B, ergothioneine]
- Hygroscopicity [1]: Stable
- Moisture (%) [2]: 0.10%

Structure (SMILES): C[N+](C)(C)[C@@H](Cc1c[nH]c(=S)[nH]1)C(=O)[O-] [Crystal form C, ergothioneine]
- Hygroscopicity [1]: Stable
- Moisture (%) [2]: 0.09%
